In patent US20260226096A1, “MODIFIED PROTEINS OR PEPTIDES FOR COVALENT TARGETING” (YEDA RESEARCH AND DEVELOPMENT CO. LTD., priority 2023, published 2026):
Non-standard residues stand in square brackets, D forms with d. Residues, ends and D or L forms follow the SMILES beside them. Primed or numbered codes have the meaning given here. No end group written: not given here. *: point of attachment. Pra′ = its azide, alkyne or alkene has reacted where a group follows in round brackets; methacrylate = methacrylate-modified cysteine (mC); pT = C[C@@H](OP(=O)(O)O)[C@H](N)C(=O)O; mC = methacrylate-modified cysteine; pS = N[C@@H](COP(=O)(O)O)C(=O)O; BODIPY = not defined here; Dab = NCC[C@H](N)C(=O)O; X1 = C=C(C*)C(=O)OCC; ClAc = O=C(CCl)*

How the values were obtained:
[1] = target: T1, 14-3-3σ (Homo sapiens, UniProt P31947); assay: Covalent labeling of 14-3-3σ by peptides, intact protein LC/MS; conditions: for labeling of 14-3-3σ within 5 hours / labeling of 14-3-3σ after 48 hours / covalent labeling of 14-3-3σ with the expected adduct mass: 14-3-3σ 2 μM; for labeling of 14-3-3σ within 5 hours: time course; for labeling of 14-3-3σ after 48 hours: room temperature; for covalent labeling of 14-3-3σ with the expected adduct mass: peptide 200 μM, 4° C. overnight
T1 sequence (P31947 with tags, fused parts or gaps): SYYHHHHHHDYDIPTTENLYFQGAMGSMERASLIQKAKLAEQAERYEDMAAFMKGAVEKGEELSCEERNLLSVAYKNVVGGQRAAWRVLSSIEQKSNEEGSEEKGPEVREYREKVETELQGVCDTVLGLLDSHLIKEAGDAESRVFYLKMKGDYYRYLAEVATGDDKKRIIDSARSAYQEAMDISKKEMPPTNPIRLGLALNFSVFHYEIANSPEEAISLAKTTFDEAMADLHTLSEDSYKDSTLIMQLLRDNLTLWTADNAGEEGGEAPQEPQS

[2] = Peptide stability in buffer and intrinsic reactivity with lysine and cysteine; format: physicochemical; conditions: room temperature, timescale of days
Protocol: The intrinsic reactivity and stability of the active peptides with their labeling rates were compared). Their stability was tested in buffer and in the presence of lysine and cysteine at room temperature. […] The reactivity towards cysteine was much higher—the peptides reacted with cysteine to generate both Michael adducts as well as substitution products in which the thiol peptide is released. Peptides SEQ ID 3, SEQ ID 8 and SEQ ID 11 were more than >50% reacted within 2.5 hours.
The LS/MS runs for peptides were performed using the same instrument with a C18-CSH column (300 Å, 1.7 μm, […]) using a gradient starting from 1% B for 1 minute, rising to 95% B in 4.5 minutes, holding at 95% B for 0.75 minutes, then decreasing to 1% B in 0.75 minutes and holding at 1% B for 1 minute. MS data were collected at a range of 80-2500 m/z, using identical conditions for ionization as with the protein.

[3] = target: T1, 14-3-3σ; assay: Fluorescence polarization competition/binding experiment; conditions: 14-3-3σ 0.25 μM, fluorescent peptide 5 nM, 27° C., immediately after mixing
[4] = tested on: 14-3-3 isoforms; assay: Binding to 14-3-3 isoforms using LC-MS qTOF; conditions: protein:peptide 1:5, overnight, 4° C.
Protocol: The 14-3-3 isoforms were buffer-exchanged into complexation buffer (20 mM HEPES pH 7.5, 100 mM NaCl, 10 mM MgCl2) and mixed with the peptides (3/8) in a 1:5 molar stoichiometry (protein:peptide) at a final concentration of 10 mg/mL. The complexes were buffer-exchanged into milliQ+0.1% formic acid after overnight incubation at 4° C.
UPLC-QToF-MS analysis was performed on a Waters (Milford, MA, USA) Acquity I-Class UPLC system coupled to a Waters Xevo G2 quadrupole time-of-flight (QToF) mass spectrometer. The devices were controlled by MassLynx Software (version 4.1, Waters, MA, USA). Full scan in positive electrospray ionization (ESI+) mode was used as MS acquisition mode with an acquisition range from 200-2000 m/z. […] The samples concentration were 0.01-0.1 mg/mL, and the injection volume was 1 μL. Deconvolution was performed by the MaxEnt1 option of the MassLynx software. Errors were calculated using the MaxEnt Errors option.

[5] = Differential scanning fluorimetry for Im-E9 complexes; format: physicochemical; conditions: SYPRO Orange, protein 40 μM
Protocol: SYPRO Orange (X5000 stock) was diluted 200-fold in buffer, and from this stock 13 μl were added to each sample, diluting the protein to 40 μM. Each sample were split into 3 technical replicates and heated in a thermal cycler over 1.5 hours to 95° C. while measuring the fluorescence.

[6] = target: T2, human 14-3-3σ with an N-terminal His6-tag (SEQ ID 28) (human); assay: time course, intact protein LC/MS; 5 µM peptide, 2 µM 14-3-3σ
T2 chain: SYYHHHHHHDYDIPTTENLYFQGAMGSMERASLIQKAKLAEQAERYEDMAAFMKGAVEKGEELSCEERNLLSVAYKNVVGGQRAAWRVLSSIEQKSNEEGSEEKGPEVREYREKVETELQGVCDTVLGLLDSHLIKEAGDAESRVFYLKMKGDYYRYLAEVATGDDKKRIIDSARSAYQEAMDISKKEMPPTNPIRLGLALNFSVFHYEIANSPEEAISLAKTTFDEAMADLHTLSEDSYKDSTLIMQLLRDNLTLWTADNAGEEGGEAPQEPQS

[7] = target: T2, human 14-3-3σ with an N-terminal …; assay: intact protein LC/MS; 200 µM peptide, 2 µM 14-3-3σ, 4° C. overnight
[8] = target: T2, human 14-3-3σ with an N-terminal …; assay: 2 µM 14-3-3σ with 5 µM peptide, 48 hours at room temperature
[9] = target: T2, human 14-3-3σ with an N-terminal …; assay: not told how it was measured; probe of the fluorescence polarization experiment

## C=C(CSC[C@H](NC(=O)[C@H](COP(=O)(O)O)NC(=O)[C@H](C)NC(=O)[C@H](CO)NC(=O)[C@H](CCCNC(=N)N)NC(C)=O)C(=O)N1CCC[C@H]1C(=O)N[C@@H](CO)C(=O)N[C@@H](CC(C)C)C(N)=O)C(=O)OCC [SEQ ID 3, Ac-RSApSmCPSL-NH2] (Ac-RSA[pS]C(X1)PSL-NH2)
[1]; peptide 5 μM, 25° C.
  labeling of 14-3-3σ within 5 hours: 60%
[1]; peptide 5 μM
  labeling of 14-3-3σ after 48 hours: ~ 75%
[1]
  covalent labeling of 14-3-3σ with the expected adduct mass: 51%
[2]
  stability in buffer over days: remained unmodified even after 3 days

## Ac-SHpTLmCS-NH2 (Ac-SH[pT]LC(methacrylate)S-NH2) [SEQ ID 2]
[3]; peptide 200 μM
  displacement of the fluorescent binder at 200 μM: all peptides except peptide SEQ ID 2 displaced the binder

## Ac-RAHpSSPAmCLQ-NH2 (Ac-RAH[pS]SPAC(methacrylate)LQ-NH2) [SEQ ID 10]
[3]; peptide 5 μM
  displacement of the fluorescent binder at 5 μM: had sufficient affinity to displace the fluorescent binder

## Ac-RAHpSSPASLX-NH2 (Ac-RAH[pS]SPASL[Dab](ClAc)-NH2) [SEQ ID 12, chloroacetamide warhead peptide that reacts with 14-3-3σ via Cys38, used as a positive control]
[4]
  labeling of 14-3-3 isoforms: labeled only the sigma isoform

## C=C(CSC[C@H](NC(=O)[C@H](CO)NC(=O)[C@H](C)NC(=O)[C@@H]1CCCN1C(=O)[C@H](CO)NC(=O)[C@H](COP(=O)(O)O)NC(=O)[C@H](Cc1c[nH]cn1)NC(=O)[C@H](C)NC(=O)[C@H](CCCNC(=N)N)NC(C)=O)C(=O)N[C@@H](CCC(N)=O)C(N)=O)C(=O)OCC [SEQ ID 11, Ac-RAHpSSPASmCQ-NH2] (Ac-RAH[pS]SPASC(X1)Q-NH2)
[1]; peptide 5 μM
  labeling of 14-3-3σ after 48 hours: 100%
[1]; peptide 5 μM, 25° C.
  free (non-labelled) 14-3-3σ remaining within 2.5 hours: less than 5%
[1]
  covalent labeling of 14-3-3σ with the expected adduct mass: 11%
[2]
  stability in buffer over days: formed a new product with the same mass as the original peptide

## C=C(CSC[C@H](NC(=O)[C@H](COP(=O)(O)O)NC(=O)[C@H](Cc1c[nH]cn1)NC(=O)[C@H](C)NC(=O)[C@H](CCCNC(=N)N)NC(C)=O)C(=O)N1CCC[C@H]1C(=O)N[C@@H](C)C(=O)N[C@@H](CO)C(=O)N[C@@H](CC(C)C)C(=O)N[C@@H](CCC(N)=O)C(N)=O)C(=O)OCC [SEQ ID 8, Ac-RAHpSmCPASLQ-NH2] (Ac-RAH[pS]C(X1)PASLQ-NH2)
[1]; peptide 5 μM, 25° C.
  labeling of 14-3-3σ within 5 hours: 80%
[1]; peptide 5 μM
  labeling of 14-3-3σ after 48 hours: 90%
[1]
  covalent labeling of 14-3-3σ with the expected adduct mass: 35%
[2]
  stability in buffer over days: formed a new product with the same mass as the original peptide

## Im9: immunity protein, inhibitory partner of the E9 nuclease, in its free (unmodified) form
[5]
  unfolding (melting) temperature: around 50 °C

## Ac-RAH[pS][mC]PASLQ-NH2 [Peptide SEQ ID 8, Ac-RAHpSmCPASLQ-NH2]
[6]
  fold increase of the rate of labeling at 37° C. against 25° C.: ~4 fold
[7]
  covalent labeling (%): 35%
[8]
  covalent labeling (%): 90%

## Ac-SH[pT][mC]PS-NH2 [Peptide SEQ ID 1, Ac-SHpTmCPS-NH2]
[7]
  covalent labeling (%): ~10%

## Ac-RAH[pS]SPASC(methacrylate)Q-NH2 [Peptide SEQ ID 11, Ac-RAHpSSPASmCQ-NH2]
[7]
  covalent labeling (%): 11%
[8]
  covalent labeling (%): 100%

## [Pra′](BODIPY)RAH[pS]PASL[Dab] (not fully specified (N-terminus, C-terminus); reading uncertain) [BODIPY-labeled noncovalent binder for 14-3-3σ (SEQ ID 38)]
[9]
  Kd: ~100 nM

## Ac-RSA[pS][mC]PSL-NH2 [Peptide SEQ ID 3, Ac-RSApSmCPSL-NH2]
[6]
  fold increase of the rate of labeling at 37° C. against 25° C.: ~4 fold
[7]
  covalent labeling (%): 51%
[8]
  covalent labeling (%): ~75%
